Here are results for 34 molecules from patent publication EP0665223A1, “Antitumor agent, novel 3(2H)-pyridazinone derivatives and their preparation” (TAKEDA CHEMICAL INDUSTRIES, LTD., priority 1994, dated 1995).

The test system of experiment [1] is pancreatic cancer cell AsPC-1. The experiment in a line: Suppressing proliferation of pancreatic cancer cell AsPC-1 in vitro (MTT, number of living cells). In kind it is cell-based. The note with it: Homo sapiens, ASPC1, 72 h, AsPC-1, RPMI 1640 medium, incubated 3 days with test compound. The procedure:
(§1) A cell suspension of pancreatic cancer cell AsPC-1 (20000/ml) in RPMI 1640 medium (Flow Laboratories) supplemented with 10% of inactivated fetal calf serum, 1 mM of sodium pyruvate and 25 mM of HEPES [2-{4-(2-hydroxyethyl)-1-piperazinyl}ethanesulfonic acid] was added to 96-well micro-culture plates (50ul/well). The culture plates were incubated at 37°C in a 5% CO₂ incubator. On the following day, the solution of each test compound dissolved in dimethylformamide and diluted (3-fold steps) was added (50 ul/well), which was incubated for further 3 days. The culture broth containing the test compounds was eliminated, and the cells were washed, to which was added a solution of MTT pigment, and the number of living cells was calculated [Tada et al. J. Immunol. Methods, 93 p.157 (1986)]. The number of cells in the control group containing no test compound was assumed to be 100%, and the respective ratios of cell numbers in groups containing the respective test compounds were calculated to thereby determine the concentrations (IC₅₀ value) of the respective test compounds necessary to suppress the number of living cells to 50% of that of the control group.

Experiment [2] deals with pancreatic cancer cell strain PC-3. The experiment in a line: Suppressing proliferation of PC-3 cells in vitro (MTT, number of living cells). In kind it is cell-based. The note with it: 96 h, PC-3, F-12K medium, incubated 4 days with test compound. The method, then: as §1
For the test of pancreatic cancer cell strain PC-3, the same method in the case of AcPC-1 was employed excepting the use of F-12K medium containing 10% inactivated fetal calf serum (Flow Laboratories) and change of the incubation period after adding the test compounds to 4 days, to thereby determine the IC₅₀ value (nm).

With `CC(C)(C)n1ncc(SCc2ccc(-c3ccccc3)cc2)c(Cl)c1=O` [Compound 3, 2-t-butyl-4-chloro-5-(4-phenyl)benzylthio-3(2H)pyridazinone], the IC50 in experiment [1] is < 1.52 nM; in experiment [2] it was 2 nM.

For the molecule `CC(C)(C)n1ncc(SCc2ccc3ccccc3c2)c(Cl)c1=O` [Compound 4, 2-t-butyl-4-chloro-5-(2-naphthyl)methylthio-3(2H)pyridazinone], the half-inhibitory concentration (IC50) in experiment [1] is 15 nM; in experiment [2] it was < 1.52 nM.

In the case of `CC(C)(C)n1ncc(SCC=Cc2ccccc2)c(Cl)c1=O` [Compound 6, 2-t-butyl-4-chloro-5-{(3-phenyl)-2-propenylthio}-3(2H)pyridazinone], the values for the 50% inhibitory concentration (IC50) in experiment [1] and in experiment [2] were 290 nM and 53 nM, respectively.

Turning to `CC(C)(C)n1ncc(SCc2ccc3ccccc3n2)c(Cl)c1=O` [Compound 12, 2-t-butyl-4-chloro-5-(2-quinolyl)methylthio-3(2H)pyridazinone], the concentration for half-maximal inhibition (IC50) amounted to 74 nM in experiment [1] and 42 nM in experiment [2].

`CC(C)(C)n1ncc(SCc2ccc(-c3ccccc3C#N)cc2)c(Cl)c1=O` [Compound 13, 2-t-butyl-4-chloro-5-{4-(2-cyanophenyl)} benzylthio-3(2H)pyridazinone]: the IC50 in experiment [1] and in experiment [2] was < 1.52 nM each time.

For the molecule `CC(C)(C)n1ncc(SCc2ccc(C(F)(F)F)cc2)c(Cl)c1=O` [Compound 17, 2-t-butyl-4-chloro-5-(4-trifluoromethyl) benzylthio-3(2H)pyridazinone], the IC50 in experiment [1] was determined as 59 nM; in experiment [2], 56 nM.

For `CC(C)(C)n1ncc(OCc2ccc(-c3ccccc3)cc2)c(Cl)c1=O` [Compound 18, 2-t-butyl-4-chloro-5-(4-phenyl)benzyloxy-3(2H)pyridazinone], the IC50 in experiment [1] and in experiment [2] was < 1.52 nM each time.

On to `CC(C)(C)n1ncc(OCc2ccc3ccccc3c2)c(Cl)c1=O` [Compound 20, 2-t-butyl-4-chloro-5-(2-naphthyl)methyloxy-3(2H)pyridazinone], for which the IC50 turned out to be 440 nM in experiment [1] and 5 nM in experiment [2].

In the case of `Cc1c(SCc2ccc(C(C)(C)C)cc2)cnn(C(C)(C)C)c1=O` [Compound 27, 2-t-butyl-5-(4-t-butyl)benzylthio-4-methyl-3(2H)pyridazinone], the results for the IC50 in experiment [1] and in experiment [2] were 9 nM and < 1.52 nM, respectively.

On to `Cc1c(OCc2ccc(C(C)(C)C)cc2)cnn(C(C)(C)C)c1=O` [Compound 31, 2-t-butyl-5-(4-t-butyl)benzyloxy-4-methyl-3(2H)pyridazinone], for which the half-maximal inhibitory concentration (IC50) was 84 nM in experiment [1] and 25 nM in experiment [2].

Regarding `CC(C)(C)n1ncc(SCc2ccc(-c3ccccn3)cc2)c(Cl)c1=O` [Compound 39, 2-t-butyl-4-chloro-5-{4-(2-pyridyl)benzylthio}-3(2H)-pyridazinone], the IC50 in experiment [1] was < 1.52 nM; in experiment [2], 4 nM.

As for `CC(C)(C)n1ncc(OCc2ccc(-c3ccccn3)cc2)c(Cl)c1=O` [Compound 42, 2-t-butyl-4-chloro-5-{4-(2-pyridyl)benzyloxy}-3(2H)-pyridazinone], the half-inhibitory concentration (IC50) was 5 nM in experiment [1] and 2 nM in experiment [2].

For the molecule `CC(C)(C)n1ncc(SC(CO)c2ccccc2)c(Cl)c1=O` (centres unmarked) [Compound 48, 2-t-butyl-4-chloro-5-(2-hydroxy-1-phenyl) ethylthio-3(2H)-pyridazinone], the IC50 in experiment [1] is 67 nM; in experiment [2], 45 nM.

On to `CC(C)(C)n1ncc(OCc2ccc(OCc3ccc(F)cc3)nc2)c(Cl)c1=O` [Compound 49, 2-t-butyl-4-chloro-5-[6-(4-fluorobenzyloxy)-3-pyridyl]methoxy-3(2H)-pyridazinone], for which the half-maximal inhibitory concentration (IC50) in experiment [1] is 120 nM; in experiment [2], < 1.52 nM.

On to `CC(C)(C)n1ncc(SCc2ccc(OCc3ccc(F)cc3)nc2)c(Cl)c1=O` [Compound 50, 2-t-butyl-4-chloro-5-[6-(4-fluorobenzyloxy)-3-pyridyl]methylthio-3(2H)-pyridazinone], for which the half-inhibitory concentration (IC50) in experiment [1] was 11 nM; in experiment [2], < 1.52 nM.

Take `CC(C)(C)n1ncc(SCc2ccc(C(=O)c3ccc(Cl)cc3)cc2)c(Cl)c1=O` [Compound 72, 2-t-butyl-4-chloro-5-[4-(4-chlorobenzoyl)benzylthio]-3(2H)-pyridazinone]: the half-inhibitory concentration (IC50) in experiment [1] and in experiment [2] was < 1.52 nM each time.

Consider `CC(C)(C)n1ncc(OCc2ccc(C(=O)c3ccc(Cl)cc3)cc2)c(Cl)c1=O` [Compound 73, 2-t-butyl-4-chloro-5-[4-(4-chlorobenzoyl)benzyloxy]-3(2H)-pyridazinone], for which the IC50 in experiment [1] was 8 nM; in experiment [2] it was < 1.52 nM.

On to `CC(C)(C)n1ncc(SCc2ccc(OCc3ccccc3)cc2)c(Cl)c1=O` [Compound 74, 5-(4-benzyloxybenzylthio)-2-t-butyl-4-chloro-3(2H)-pyridazinone], for which the IC50 was 29 nM in experiment [1] and < 1.52 nM in experiment [2].

Take `CC(C)(C)n1ncc(OCC(O)c2ccc(-c3ccccc3)cc2)c(Cl)c1=O` (centres unmarked) [Compound 82, 2-t-butyl-4-chloro-5-[2-hydroxy-2-(4-biphenyl)]ethoxy-3(2H)-pyridazinone]: the IC50 in experiment [1] was determined as 480 nM; in experiment [2] it was 27 nM.

In the case of `CC(C)(C)n1ncc(OC(CO)c2ccc(-c3ccccc3)cc2)c(Cl)c1=O` (centres unmarked) [Compound 83, 2-t-butyl-4-chloro-5-[2-hydroxy-1-(43-biphenyl)]ethoxy-3(2H)-pyridazinone], the IC50 in experiment [1] is 73 nM; in experiment [2] it was 2 nM.

In the case of `CC(C)(C)n1ncc(SC(CO)c2ccc(-c3ccccc3)cc2)c(Cl)c1=O` (centres unmarked) [Compound 85, 2-t-butyl-4-chloro-5-[2-hydroxy-1-(p-biphenyl)]ethylthio-3(2H)-pyridazinone], the figures for the concentration for half-maximal inhibition (IC50) in experiment [1] and in experiment [2] were 12 nM and < 1.52 nM, respectively.

For the molecule `CC(C)(C)OC(=O)Nc1cc(-c2ccc(CSc3cnn(C(C)(C)C)c(=O)c3Cl)cc2)ccn1` [Compound 90, 2-t-butyl-4-chloro-5-[4-[4-(2-t-butoxycarbonylamino)pyridyl]benzylthio]-3(2H)-pyridazinone], the IC50 in experiment [1] was 270 nM; in experiment [2], 64 nM.

In the case of `CC(C)(C)OC(=O)Nc1cc(-c2ccc(COc3cnn(C(C)(C)C)c(=O)c3Cl)cc2)ccn1` [Compound 91], the results for the IC50 in experiment [1] and in experiment [2] were 560 nM and 92 nM, respectively.

Regarding `CC(C)(C)n1ncc(SCc2ccc(-c3ccnc(N)c3)cc2)c(Cl)c1=O` [Compound 92, 5-[4-[4-(2-amino)pyridyl]benzylthio]-2-t-butyl-4-chloro-3(2H)-pyridazinone], the half-inhibitory concentration (IC50) is 28 nM in experiment [1] and < 1.52 nM in experiment [2].

On to `CC(C)(C)n1ncc(OCc2ccc(-c3ccnc(N)c3)cc2)c(Cl)c1=O` [Compound 93, 5-[4-[4-(2-amino)pyridyl]benzyloxy]-2-t-butyl-4-chloro-3(2H)-pyridazinone], for which the IC50 in experiment [1] was 770 nM; in experiment [2] it was 110 nM.

As for `CC(C)(C)n1ncc(SCc2ccc(-c3ncccn3)cc2)c(Cl)c1=O` [Compound 96, 2-t-butyl-4-chloro-5-[4-(2-pyrimidyl)]benzylthio-3(2H)-pyridazine], the values for the IC50 in experiment [1] and in experiment [2] were 16 nM and < 1.52 nM, respectively.

Turning to `CC(C)(C)n1ncc(OCc2ccc(-c3ncccn3)cc2)c(Cl)c1=O` [Compound 97, 2-t-butyl-4-chloro-5-[4-(2-pyrimidyl)]benzyloxy-3(2H)-pyridazine], the IC50 is 280 nM in experiment [1] and < 1.52 nM in experiment [2].

In the case of `COc1cc(OC)nc(-c2ccc(CSc3cnn(C(C)(C)C)c(=O)c3Cl)cc2)n1` [Compound 98, 2-t-butyl-4-chloro-5-[4-[2-(4,6-dimethoxy)pyrimidyl]]benzylthio-3(2H)-pyridazinone], the half-inhibitory concentration (IC50) in experiment [1] was found to be 54 nM; in experiment [2], 6 nM.

As for `COc1cc(OC)nc(-c2ccc(COc3cnn(C(C)(C)C)c(=O)c3Cl)cc2)n1` [Compound 99, 2-t-butyl-4-chloro-5-[4-[2-(4,6-dimethoxy)pyrimidyl]]benzyloxy-3(2H)-pyridazinone], the IC50 in experiment [1] amounted to 230 nM; in experiment [2], 52 nM.

With `CC(C)(C)n1ncc(SCc2ccc(-c3csc(N)n3)cc2)c(Cl)c1=O` [Compound 102], the half-maximal inhibitory concentration (IC50) in experiment [1] turned out to be 33 nM; in experiment [2], 2 nM.

On to `CC(C)(C)n1ncc(OCc2ccc(-c3csc(N)n3)cc2)c(Cl)c1=O` [Compound 103], for which the figures for the concentration for half-maximal inhibition (IC50) in experiment [1] and in experiment [2] were 250 nM and 210 nM, respectively.

As for `Cc1c(OCc2ccc(-c3ccccn3)cc2)cnn(C(C)(C)C)c1=O` [Compound 104, 2-t-butyl-4-methyl-5-[4-(2-pyridyl)]benzyloxy-3(2H)-pyridazinone], the figures for the IC50 in experiment [1] and in experiment [2] were 85 nM and < 1.52 nM, respectively.

For the molecule `CC(C)(C)n1ncc(SCc2ccc(-c3cc[nH]n3)cc2)c(Cl)c1=O` [Compound 111, 2-t-butyl-4-chloro-5-[4-(1H-pyrazol-3-yl)benzylthio]-3(2H)-pyridazinone], the IC50 is 550 nM in experiment [1] and 3 nM in experiment [2].

Regarding `CC(C)(C)n1ncc(SCc2ccc(-c3ccno3)cc2)c(Cl)c1=O` [Compound 113, 2-t-butyl-4-chloro-5-[4-(1,2-oxazol-5-yl)benzylthio]-3(2H)-pyridazinone], the IC50 was 120 nM in experiment [1] and < 1.52 nM in experiment [2].

As usually defined, the IC50 is the concentration needed to halve the response being measured. A higher IC50 goes with weaker potency.
